This passage reports IC50 and Papp A→B results from patent US20240101549A1, “N-(2-(4-CYANOTHIAZOLIDIN-3-YL)-2-OXOETHYL)-QUINOLINE-4-CARBOXAMIDES” (AstraZeneca AB, priority 2020, published 2024).

The structures appear in SMILES notation.

FAP, sequence (A0A2K5VGH4 entry or part of it): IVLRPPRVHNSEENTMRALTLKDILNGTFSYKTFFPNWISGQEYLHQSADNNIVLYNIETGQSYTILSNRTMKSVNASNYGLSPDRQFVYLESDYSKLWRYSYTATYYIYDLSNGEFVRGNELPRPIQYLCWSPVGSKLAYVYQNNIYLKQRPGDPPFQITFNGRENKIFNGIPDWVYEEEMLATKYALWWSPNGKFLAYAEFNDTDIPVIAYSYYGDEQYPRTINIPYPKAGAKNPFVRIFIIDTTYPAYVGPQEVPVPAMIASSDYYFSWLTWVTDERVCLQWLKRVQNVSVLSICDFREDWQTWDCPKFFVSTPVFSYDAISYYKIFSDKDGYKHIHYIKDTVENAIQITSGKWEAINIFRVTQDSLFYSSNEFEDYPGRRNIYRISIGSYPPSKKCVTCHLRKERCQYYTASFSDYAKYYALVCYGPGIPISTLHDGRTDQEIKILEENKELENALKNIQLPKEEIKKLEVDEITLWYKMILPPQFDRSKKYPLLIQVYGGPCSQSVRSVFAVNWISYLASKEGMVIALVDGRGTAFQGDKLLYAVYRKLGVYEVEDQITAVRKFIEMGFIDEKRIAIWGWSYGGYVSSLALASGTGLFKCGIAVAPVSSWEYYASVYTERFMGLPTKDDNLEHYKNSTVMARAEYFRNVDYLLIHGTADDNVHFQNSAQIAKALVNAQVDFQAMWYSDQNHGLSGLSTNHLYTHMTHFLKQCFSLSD

The first data set deals with FAP (Macaca fascicularis, UniProt A0A2K5VGH4). Kind of data set: FAP plasma inhibition assay, cynomolgus plasma. The format is biochemical. The following applies: cynomolgus plasma diluted 1:40, 75 μM Ala-Pro-AMC; n = 1; read-out: FAP Cyno Plasma IC50. As for the experimental part:
D. FAP Plasma Inhibition Assay This assay was adapted from the method described in Example 237 for detection of FAP target engagement enzyme activity in plasma. […] Compounds were tested using 10 CR, 3 fold dilution series from 500 nM FAC. Two replicates for each assay point were run on the same plate. A fluorescence blank read was taken before substrate addition. […] Plates were incubated for 40 min at rt in the dark. […] IC50 values were determined by plotting % inhibition versus log compound concentration.
In the case of `N#C[C@@H]1CSCN1C(=O)CNC(=O)c1ccnc2ccc(N3C4CCC3COC4)cc12` [Example 98, 6-(3-Oxa-8-azabicyclo[3.2.1]octan-8-yl)-N-(2-((R)-4-cyanothiazolidin-3-yl)-2-oxoethyl)quinoline-4-carboxamide], the IC50 is 0.3 nM. Turning to `CN1CCC(F)(c2ccc3nccc(C(=O)NCC(=O)N4CSC[C@H]4C#N)c3c2)CC1` [Example 195, (R)—N-(2-(4-Cyanothiazolidin-3-yl)-2-oxoethyl)-6-(4-fluoro-1-methyl-piperidin-4-yl)quinoline-4-carboxamide], the IC50 was 1 nM.

For the compound `N#C[C@@H]1CSCN1C(=O)CNC(=O)c1ccnc2ccc(N3C[C@@H](F)[C@@H](F)C3)cc12` [Example 50, N-(2-((R)-4-Cyanothiazolidin-3-yl)-2-oxoethyl)-6-((3R,4S)-3,4-difluoropyrrolidin-1-yl)quinoline-4-carboxamide], the IC50 turned out to be 0.3 nM. Still for that read-out and setting: in the case of `N#C[C@@H]1CSCN1C(=O)CNC(=O)c1ccnc2ccc(N3CCO[C@@H](CF)C3)cc12` [Example 69, N-(2-((R)-4-Cyanothiazolidin-3-yl)-2-oxoethyl)-6-((R)-2-(fluoromethyl)morpholino)-quinoline-4-carboxamide] it was 0.2 nM; in that of `C[C@@H]1OCCN(c2ccc3nccc(C(=O)NCC(=O)N4CSC[C@H]4C#N)c3c2)[C@H]1C` [Example 82, N-(2-((R)-4-Cyanothiazolidin-3-yl)-2-oxoethyl)-6-((2S,3S)-2,3-dimethyl-morpholino)quinoline-4-carboxamide], 0.3 nM. For the compound `C[C@@H]1CN(c2ccc3nccc(C(=O)NCC(=O)N4CSC[C@H]4C#N)c3c2)C[C@H](C)O1` [Example 68, N-(2-((R)-4-Cyanothiazolidin-3-yl)-2-oxoethyl)-6-((2R,6S)-2,6-dimethylmorpholino)-quinoline-4-carboxamide], the IC50 turned out to be 0.3 nM. Same read-out and setting: in the case of `CC1(C)CN(c2ccc3nccc(C(=O)NCC(=O)N4CSC[C@H]4C#N)c3c2)CCO1` [Example 88, (R)—N-(2-(4-Cyanothiazolidin-3-yl)-2-oxoethyl)-6-(2,2-dimethyl-morpholino)quinoline-4-carboxamide] it was 0.2 nM. Take `N#C[C@@H]1CSCN1C(=O)CNC(=O)c1ccnc2ccc(N3CC(F)(CF)C3)cc12` [Example 157, (R)—N-(2-(4-Cyanothiazolidin-3-yl)-2-oxoethyl)-6-(3-fluoro-3-(fluoromethyl)azetidin-1-yl)quinoline-4-carboxamide]: the IC50 was found to be 0.4 nM.

As for `CC(=O)N1CC2(C1)CN(c1ccc3nccc(C(=O)NCC(=O)N4CSC[C@H]4C#N)c3c1)C2` [Example 184, (R)-6-(6-Acetyl-2,6-diazaspiro[3.3]heptan-2-yl)-N-(2-(4-cyanothiazolidin-3-yl)-2-oxoethyl)quinoline-4-carboxamide], the IC50 came out at 0.3 nM. Take `CC1(CF)CN(c2ccc3nccc(C(=O)NCC(=O)N4CSC[C@H]4C#N)c3c2)C1` [Example 27, (R)—N-(2-(4-Cyanothiazolidin-3-yl)-2-oxoethyl)-6-(3-(fluoromethyl)-3-methylazetidin-1-yl)quinoline-4-carboxamide]: the IC50 came out at 0.3 nM.

`COC1(C)CN(c2ccc3nccc(C(=O)NCC(=O)N4CSC[C@H]4C#N)c3c2)C1` [Example 151, (R)—N-(2-(4-Cyanothiazolidin-3-yl)-2-oxoethyl)-6-(3-methoxy-3-methylazetidin-1-yl)quinoline-4-carboxamide]: the IC50 was 0.3 nM.

Consider `N#C[C@@H]1CSCN1C(=O)CNC(=O)c1ccnc2ccc(N3CCO[C@H](CF)C3)cc12` [Example 71, N-(2-((R)-4-Cyanothiazolidin-3-yl)-2-oxoethyl)-6-((S)-2-(fluoromethyl)morpholino)-quinoline-4-carboxamide], for which the IC50 was 0.2 nM. On the same count and under the same terms, in the case of `N#C[C@@H]1CSCN1C(=O)CNC(=O)c1ccnc2ccc(N3CC(C(F)F)C3)cc12` [Example 28, (R)—N-(2-(4-Cyanothiazolidin-3-yl)-2-oxoethyl)-6-(3-(difluoromethyl)-azetidin-1-yl)quinoline-4-carboxamide] it was 0.3 nM; in that of `N#C[C@@H]1CSCN1C(=O)CNC(=O)c1ccnc2ccc(N3CCC(F)CC3)cc12` [Example 205, (R)—N-(2-(4-Cyanothiazolidin-3-yl)-2-oxoethyl)-6-(4-fluoropiperidin-1-yl)quinoline-4-carboxamide], 0.3 nM; in that of `C[C@@H]1CN(c2ccc3nccc(C(=O)NCC(=O)N4CSC[C@H]4C#N)c3c2)CCO1` [Example 72, N-(2-((R)-4-Cyanothiazolidin-3-yl)-2-oxoethyl)-6-((R)-2-methylmorpholino)-quinoline-4-carboxamide], 0.2 nM.

Regarding `COC1CCN(c2ccc3nccc(C(=O)NCC(=O)N4CSC[C@H]4C#N)c3c2)CC1` [Example 8, (R)—N-(2-(4-Cyanothiazolidin-3-yl)-2-oxoethyl)-6-(4-methoxypiperidin-1-yl)quinoline-4-carboxamide], the IC50 was determined as 0.2 nM. As for `C[C@@H]1CN(c2ccc3nccc(C(=O)NCC(=O)N4CSC[C@H]4C#N)c3c2)C[C@@H](C)O1` [Example 70, N-(2-((R)-4-Cyanothiazolidin-3-yl)-2-oxoethyl)-6-((2R,6R)-2,6-dimethylmorpholino)-quinoline-4-carboxamide], the IC50 was found to be 0.2 nM. The same measure, in the same setting: as for `CC(=O)NCC1(C)CN(c2ccc3nccc(C(=O)NCC(=O)N4CSC[C@H]4C#N)c3c2)C1` [Example 181, (R)-6-(3-(Acetamidomethyl)-3-methylazetidin-1-yl)-N-(2-(4-cyano-thiazolidin-3-yl)-2-oxoethyl)quinoline-4-carboxamide], the figure is 0.5 nM. The same measure, in the same setting: in the case of `C[C@H]1COCCN1c1ccc2nccc(C(=O)NCC(=O)N3CSC[C@H]3C#N)c2c1` [Example 102, N-(2-((R)-4-Cyanothiazolidin-3-yl)-2-oxoethyl)-6-((S)-3-methyl-morpholino)quinoline-4-carboxamide] it was 0.2 nM; in that of `N#C[C@@H]1CSCN1C(=O)CNC(=O)c1ccnc2ccc(N3CCO[C@H](C(F)(F)F)C3)cc12` [Example 74, N-(2-((R)-4-Cyanothiazolidin-3-yl)-2-oxoethyl)-6-((S)-2-(trifluoromethyl)-morpholino)quinoline-4-carboxamide], 0.2 nM. For `CC(F)(F)C1CN(c2ccc3nccc(C(=O)NCC(=O)N4CSC[C@H]4C#N)c3c2)C1` [Example 147, (R)—N-(2-(4-Cyanothiazolidin-3-yl)-2-oxoethyl)-6-(3-(1,1-difluoroethyl)-azetidin-1-yl)quinoline-4-carboxamide], the IC50 was 0.1 nM. For the compound `CC1(C)OCCN(c2ccc3nccc(C(=O)NCC(=O)N4CSC[C@H]4C#N)c3c2)C1=O` [Example 16, (R)—N-(2-(4-Cyanothiazolidin-3-yl)-2-oxoethyl)-6-(2,2-dimethyl-3-oxomorpholino)quinoline-4-carboxamide], the IC50 was 0.2 nM. The same measure, in the same setting: in the case of `CC1(F)CN(c2ccc3nccc(C(=O)NCC(=O)N4CSC[C@H]4C#N)c3c2)C1` [Example 24, (R)—N-(2-(4-Cyanothiazolidin-3-yl)-2-oxoethyl)-6-(3-fluoro-3-methyl-azetidin-1-yl)quinoline-4-carboxamide] it was 0.3 nM; in that of `CC1(C)CCN(c2ccc3nccc(C(=O)NCC(=O)N4CSC[C@H]4C#N)c3c2)C(=O)O1` [Example 112, (R)—N-(2-(4-Cyanothiazolidin-3-yl)-2-oxoethyl)-6-(6,6-dimethyl-2-oxo-1,3-oxazinan-3-yl)quinoline-4-carboxamide], 0.5 nM; in that of `N#C[C@@H]1CSCN1C(=O)CNC(=O)c1ccnc2ccc(N3CC4(C3)OCCO4)cc12` [Example 163, (R)—N-(2-(4-Cyanothiazolidin-3-yl)-2-oxoethyl)-6-(5,8-dioxa-2-azaspiro[3.4]octan-2-yl)quinoline-4-carboxamide], 0.2 nM.

Test system in a further data set: not listed separately
The data set can be described thus: Caco-2 cell permeability. The settings on record: human, Caco-2, AB intrinsic; n = 1 or average of n = 2-4; read-out: Caco2 AB Intrinsic Papp. The format is in vitro ADME.
Experimental: Caco-2 cell permeability was measured as described in Mol Pharm 2017, 14, 1601.
With `N#C[C@@H]1CSCN1C(=O)CNC(=O)c1ccnc2ccc(N3C4CCC3COC4)cc12` [Example 98, 6-(3-Oxa-8-azabicyclo[3.2.1]octan-8-yl)-N-(2-((R)-4-cyanothiazolidin-3-yl)-2-oxoethyl)quinoline-4-carboxamide], the Papp A→B is 86 nm/s. Regarding `CC1(C)Cc2c(-c3ccc4nccc(C(=O)NCC(=O)N5CSC[C@H]5C#N)c4c3)cnn2C1` [Example 123, (R)—N-(2-(4-Cyanothiazolidin-3-yl)-2-oxoethyl)-6-(5,5-dimethyl-5,6-dihydro-4H-pyrrolo[1,2-b]pyrazol-3-yl)quinoline-4-carboxamide], the Papp A→B came to 140 nm/s. The same measure, in the same setting: in the case of `CC1(C)CN(c2ccc3nccc(C(=O)NCC(=O)N4CSC[C@H]4C#N)c3c2)CCO1` [Example 88, (R)—N-(2-(4-Cyanothiazolidin-3-yl)-2-oxoethyl)-6-(2,2-dimethyl-morpholino)quinoline-4-carboxamide] it was 130 nm/s; in that of `CC(=O)N1CC2(C1)CN(c1ccc3nccc(C(=O)NCC(=O)N4CSC[C@H]4C#N)c3c1)C2` [Example 184, (R)-6-(6-Acetyl-2,6-diazaspiro[3.3]heptan-2-yl)-N-(2-(4-cyanothiazolidin-3-yl)-2-oxoethyl)quinoline-4-carboxamide], 1 nm/s; in that of `N#C[C@@H]1CSCN1C(=O)CNC(=O)c1ccnc2ccc(N3CC(C(F)F)C3)cc12` [Example 28, (R)—N-(2-(4-Cyanothiazolidin-3-yl)-2-oxoethyl)-6-(3-(difluoromethyl)-azetidin-1-yl)quinoline-4-carboxamide], 210 nm/s.

As for `CC1(O)CN(c2ccc3nccc(C(=O)NCC(=O)N4CSC[C@H]4C#N)c3c2)C1` [Example 165, (R)—N-(2-(4-Cyanothiazolidin-3-yl)-2-oxoethyl)-6-(3-hydroxy-3-methyl-azetidin-1-yl)quinoline-4-carboxamide], the Papp A→B is 5.1 nm/s.

`CC1(CS(C)(=O)=O)CN(c2ccc3nccc(C(=O)NCC(=O)N4CSC[C@H]4C#N)c3c2)C1` [Example 188, (R)—N-(2-(4-Cyanothiazolidin-3-yl)-2-oxoethyl)-6-(3-methyl-3-((methylsulfonyl)methyl)azetidin-1-yl)quinoline-4-carboxamide]: the Papp A→B was found to be 2.8 nm/s. The same measure, in the same setting: as for `COCC1(C)CN(c2ccc3nccc(C(=O)NCC(=O)N4CSC[C@H]4C#N)c3c2)C1` [Example 29, (R)—N-(2-(4-Cyanothiazolidin-3-yl)-2-oxoethyl)-6-(3-(methoxymethyl)-3-methylazetidin-1-yl)quinoline-4-carboxamide], the figure is 260 nm/s. The same measure, in the same setting: as for `CO[C@@H]1CN(c2ccc3nccc(C(=O)NCC(=O)N4CSC[C@H]4C#N)c3c2)[C@H]1C` [Example 30, N-(2-((R)-4-Cyanothiazolidin-3-yl)-2-oxoethyl)-6-((2S,3R)-3-methoxy-2-methylazetidin-1-yl)quinoline-4-carboxamide], the figure is 150 nm/s.

Broadly, the IC50 is the concentration at which inhibition is half-maximal.
